US20040014814A1, “Compositions and methods for delaying preventing rejuvenating or reversing senescence in cells” (priority 2000, published 2004)

Experiments:
non-enzymic glycation = tested on: non-enzymic glycation; design: key: 0 = zero effect; 10 = maximum effect; settings: summary grade; footnote (2) literature; cited from earlier work
MRC-5 cells = experiment: Uptake of radio-labeled (3H) compounds by MRC-5 fibroblast cells; settings: after 48 hours
Experimental: For MRC-5 cells, (3H)—carnosine and acetyl carnosine were added to the medium of near confluent 60mm culture dishes. At different time points cells were washed three times with phosphate buffered saline, cells harvested and cell-associated radioactivity determined using Packard Starscint scintillation fluid.
The rate of uptake of carnosine and acetyl-carnosine by MRC-5 cells was studied using radio-labeled tritiated (3H) carnosine and acetyl-carnosine compounds. The uptake was measured in MRC-5 cells at passage 28 over a 48 hour period (FIG. 3A).

p16^INK4/CDKN2 = experiment: Immunohistochemical staining of p16 in MRC-5 cell nuclei; assay type: cell-based, human; settings: senescent cells, old media replaced with supplemented media, after a few days
Experimental: Senescent cells treated with acetyl-carnosine acquire a younger phenotype and no longer express p16 (C). Cells were stained from passage 30 until senescence was reached (approximately passage 65) in order to determine the effectiveness of p16 as a reliable biomarker.
Tissue culture cells were fixed by slowly infusing 4% paraformaldehyde in 0.1M sodium phosphate buffer pH 7.4 into the culture medium. This solution was then replaced with fixative alone and stored at −20° C. for 30 minutes. Cultures were then defrosted for 5 minutes at 37° C. and then washed with 3 changes of the 0.1M sodium phosphate buffer. […]
Three primary antibodies were used in this study: (i) murine monoclonal antibodies against cyclin-dependent kinase inhibitor p27^kipl (clone SX53G8, IgG, Loto38, DAKO, diluted 1:200); (ii) murine monoclonal antibodies against cyclin-dependent kinase inhibitor p21^WAP/CIPI (clone SX118, IgG, Loto88, DAKO, diluted 1:200); and (iii) murine monoclonal antibodies against cyclin-dependent kinase inhibitor p16^INK4/CDKN2 (clone DCS-50, IgG, Lot 077H4821, Sigma, diluted 1:200). […] An estimate of positively stained cells to specific antigens was determined. […]

Anti-oxidant activity = assay type: biochemical; settings: parent compound = carnosine
[1] = Fate of compound after cellular uptake; assay type: cell-based; settings: compared with carnosine
Experimental: Experiments were conducted to determine the fate of acetyl-carnosine and carnosine after cellular uptake. […] A slower metabolism and incorporation into other proteins may be one reason for acetyl-carnosine having higher effective intracellular concentrations compared with carnosine despite its lower overall uptake.

Uptake relative to carnosine on a per cell basis (MRC-5 cells; MRC-5 cells): 35%
Uptake of (3H) compound by MRC-5 cells (MRC-5 cells; cells at passage 28): 0.16%
Residence time in the cell before degradation [1]: considerably longer residence time
SMILES: CC(=O)NCCC(=O)N[C@@H](Cc1cnc[nH]1)C(=O)O [N-acetyl carnosine]
anti-glycation (2) (non-enzymic glycation): 0
Number of cells greater than with carnosine (MRC-5 cells; MRC-5 cells): 42%
Number of cells growing in supplemented media (MRC-5 cells; MRC-5 cells): 3.4×10^6
Expression of p16 in the nucleus (p16^INK4/CDKN2): no expression of p16 in the nucleus
Antioxidant effectiveness relative to the parent compound (Anti-oxidant activity): 60%
